Data taken from publication PMC5766233, “Ternary copper(II) complex: NCI60 screening, toxicity studies, and evaluation of efficacy in xenograft models of nasopharyngeal carcinoma” (PLoS ONE, 2018).

Assays:
[1] = system: CYP3A; assay: Cytochrome P450 induction assay in rat primary hepatocytes, CYP3A; details: for Fold induction CYP3A: 3 days; for % of positive control CYP3A: positive control dexamethasone 30 μM
Method: Assessment for potential drug-drug interaction is an important component of drug discovery and development. […] Most drug-drug interaction and drug metabolism occur in the hepatic cytochrome P450 (CYP) system. CYP is a superfamily of metabolizing enzymes located primarily in hepatocytes. Inhibition or induction of CYP enzymes is a mechanism for drug-drug interaction. In the current work, the inhibition and induction of CYP enzymes were investigated. CYP induction assay was performed using rat primary hepatocytes for CYP […] isoforms with dexamethasone (30 μM) and 3-methyl cholanthrene (1.0 μM) as […], respectively. Cytochrome CYP 3A enzymes are considered to be the most important enzymes catalyzing drug metabolism with broad substrate specificity while CYP 1A enzymes play key roles in the metabolic activation of aromatic hydrocarbons to carcinogenic metabolites. In orally administered anticancer drug, gut wall CYP 3A enzyme is considered important for drug-drug interactions and xenobiotic interactions.
5.0 x 10^5 viable rat hepatocytes were seeded into collagen-coated 24 well plate in 500 μL William’s medium E (Sigma Aldrich) per well and they were incubated at 37°C in a 5% CO2 humidified incubator. After an overnight incubation, the medium in each designated well was replaced with 500 μL of fresh medium containing the specified concentration of Cu(II) complex (1.0, 0.3 and 0.1 μM), dexamethasone (30 μM), 3-methyl cholanthrene (1.0 μM) as reference standards (positive controls) or fresh medium alone (vehicle control). The cells were treated for 3 consecutive days with daily replacement of fresh medium containing compounds. After incubation, the cells were washed with 1X HBSS and the medium was replaced with 300 μL of probe substrates (Midazolam at 10 μM and Phenacetin at 100 μM; prepared in HBSS). The cells were then incubated for a further 20 min at 37°C with mild shaking. The reaction was terminated by adding 600 μL of cold acetonitrile followed by scraping of cells. The above mixture in each well was transferred to a tube, and these tubes were centrifuged at 10,000 rpm for 10 min. The concentration/level of metabolites in the supernatant was monitored by LC-MS/MS.
The extent of fold induction as well as percent of positive control was calculated relative to basal control (untreated) by using the following formula.
%Activity=(averagearearatiooftreated/averagearearatioofbasalcontrol)x100
Foldinduction=%activity/100%ofpositivecontrol=foldinduction(Cu(II)treated)/foldinduction(referencestandardtreated)x100

[2] = target: T1, CYP 2C9 (Homo sapiens, UniProt P11712); assay: CYP450 inhibition assay, pooled human liver microsomes; format: in vitro ADME; details: probe tolbutamide
T1 construct: Pooled human liver microsomes (Sekisui Xeno Tech, LLC., Kansas City, KS, USA) were incubated; tissue Sekisui Xeno Tech, LLC; host or cells: pooled human liver microsomes
T1 sequence (P11712 whole entry): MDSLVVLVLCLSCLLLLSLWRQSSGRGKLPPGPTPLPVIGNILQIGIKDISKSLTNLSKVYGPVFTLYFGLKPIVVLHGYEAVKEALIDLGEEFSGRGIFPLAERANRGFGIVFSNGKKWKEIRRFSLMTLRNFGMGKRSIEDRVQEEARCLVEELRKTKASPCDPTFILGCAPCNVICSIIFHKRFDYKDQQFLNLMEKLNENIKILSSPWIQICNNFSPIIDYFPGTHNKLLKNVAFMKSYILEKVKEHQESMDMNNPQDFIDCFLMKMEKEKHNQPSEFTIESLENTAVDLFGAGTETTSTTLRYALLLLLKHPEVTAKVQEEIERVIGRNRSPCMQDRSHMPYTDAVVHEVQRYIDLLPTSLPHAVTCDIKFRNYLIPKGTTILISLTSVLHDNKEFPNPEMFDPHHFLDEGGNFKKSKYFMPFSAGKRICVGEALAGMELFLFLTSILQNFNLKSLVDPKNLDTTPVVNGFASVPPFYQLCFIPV

Compound: CC(C)(N)C(=O)[O-].O.O=[N+]([O-])[O-].[Cu+2].c1cnc2c(c1)ccc1cccnc12 [Cu(II) complex, [Cu(phen)(C-dmg)(H2O)]NO3]
- Fold induction CYP3A ([1]; 0.1 μM): 1.3
- % of positive control CYP3A ([1]; 0.1 μM): 4.7%
- Fold induction CYP3A ([1]; 0.3 μM): 1.2
- % of positive control CYP3A ([1]; 0.3 μM): 4.3%
- Fold induction CYP3A ([1]; 1.0 μM): 0.8
- Cell death observed ([1]; 1.0 μM, rat hepatocytes in the induction assay): ** Cell death observed (approximately 30%).
- % of positive control CYP3A ([1]; 1.0 μM): 3.0%
- induction, % of positive control, CYP3A ([1]; 0.1-1.0 μM): < 13%
- IC50 [2]: 8.56 µM
